We go through 33 substances from patent US20240247253A1, “PRODUCTION METHOD OF POLYPEPTIDE, TAG, EXPRESSION VECTOR, EVALUATION METHOD OF POLYPEPTIDE, PRODUCTION METHOD OF NUCLEIC ACID DISPLAY LIBRARY, AND SCREENING METHOD” (FUJIFILM Corporation, priority 2021, published 2024).

Assay [1] has as its system cell-free peptide synthesis system derived from Escherichia coli. The assay is described as follows: Cell-free biosynthesis of the integrin binding peptide fusion protein with tag, reaction time 10 minutes, ELISA. In kind it is biochemical. Conditions: relative value, control without tag = 1; reaction time 10 minutes; fusion protein SEQ ID NO: 5; SKIK encoded by SEQ ID NO: 110. Here is the method: (§1) The cell-free biosynthesis of the polypeptide was carried out in a translation solution containing a template DNA, PUREfrex 2.0 (GeneFrontier, PF201-0.25-5), and Aminoacyl tRNA (1). 1.25 μL (62.5 ng) of the template DNA prepared to 50 ng/μL, 2.5 μL of PUREfrex 2.0 Solution I, 0.25 μL of Solution II, 0.5 μL of Solution III, and 0.5 μL of Aminoacyl tRNA (1) were mixed and mixture was subjected to a reaction at 37° ° C. for 1 hour.
(§2) The amount of the biosynthesized polypeptide was measured by ELISA. 50 ng of Recombinant Human Integrin αVβ3 (R&D systems, 3050-AV-050) was immobilized in each well of a 96-well plate and blocked with Blocker Casein in PBS (Thermo, 37528), and then a cell-free biosynthesis solution diluted with Can Get Signal Immunoreaction Enhancer Solution I (TOYOBO, NKB-101) containing 5 mmol/L MgCl2 was added thereto, and the mixture was subjected to a reaction at room temperature for 3 hours. After washing with 5 mmol/L MgCl2/0.05% Tween 20-containing phosphate buffered saline (PBS), an anti-Myc antibody (Cell Signaling, 14038S) diluted with Can Get Signal Immunoreaction Enhancer Solution II (TOYOBO, NKB-101) was added thereto, and the mixture was subjected to a reaction at room temperature for 2 hours. After washing with PBS containing 5 mmol/L MgCl2/0.05% Tween 20, Super Signal ELISA Femto Substrate (Thermo, 37075) was added thereto, and the luminescence was measured. The amount of the fusion protein in the cell-free biosynthesis solution was calculated based on a calibration curve created from the fusion protein having a known concentration. The luminescence measurement was performed twice, and the average value of the amounts of the fusion protein was calculated. Table 2-1 and Table 2-2 show relative values of the biosynthesis amounts of respective fusion proteins in a case where the amount of the fusion protein of the control example was set to the reference value 1.
As a comparative control, a SKIK tag represented by SEQ ID NO: 107 was selected. The polypeptide to be biosynthesized is the fusion protein containing the integrin binding peptide, as in Example 1.
Using a template DNA including DNA sequences (SEQ ID NOs: 73 to 98) encoding VKKX tags represented by SEQ ID NOs: 27 to 52 produced in Example 1, and a DNA sequence (SEQ ID NO: 110) encoding a SKIK tag represented by SEQ ID NO: 107 produced in Example 2, the biosynthesis reaction was performed in the same manner as in Example 1 by setting the reaction time to 10 minutes. In the same manner in Example 1, the fusion protein was expressed by the cell-free peptide synthesis system and quantified by ELISA. The measurement was performed twice, and the average value of the amounts of the fusion protein was calculated. […] As control example used in Example 1, the control example of the reference value 1 has a form in which the base sequence (SEQ ID NO: 6) encoding the fusion protein is arranged immediately after the start codon ATG.
On the technique in general: In an ELISA, binding on a coated surface is turned into a signal by an enzyme label.

The test system is the same in assay [2]. The assay is described as follows: Cell-free biosynthesis of the integrin binding peptide fusion protein with N-terminal tag, 1 hour reaction, amount measured by ELISA. The class given is biochemical. Conditions: fusion protein SEQ ID NO: 5; for Biosynthesis amount of fusion protein: relative value, control example without tag = 1, 37° C. for 1 hour, average of two measurements.
From the text: In the cell-free peptide synthesis system derived from Escherichia coli, the effect of the VKKX tag on the biosynthesis amount of the polypeptide was examined. As a polypeptide to be biosynthesized, an integrin binding peptide containing cysteine and chloroacetyl lysine was selected. In this polypeptide, a thiol group of cysteine and a chloroacetyl group of chloroacetyl lysine spontaneously form a thioether bond to become a cyclic polypeptide.
A fusion protein in which an integrin binding peptide, a Myc tag, and a HiBiT tag were linked in this order was designed. As a spacer, Gly-Gly-Ser was inserted between the integrin binding peptide and the Myc tag and between the Myc tag and the HiBiT tag. The amino acid sequence of this fusion protein is SEQ ID NO: 5, and the base sequence encoding this fusion protein is SEQ ID NO: 6. In SEQ ID NO: 5, the integrin binding peptide ranges to the amino acid at the twelfth position (that is, alanine) from an N-terminal, and the amino acid at eleventh position from the N-terminal is chloroacetyl lysine. The triplet TAG at the positions 31 to 33 from the 5′ terminal of the base sequence set forth in SEQ ID NO: 6 was assigned to the codon of chloroacetyl lysine. The end of the base sequence set forth in SEQ ID NO: 6 is the stop codon TAA.
A base sequence encoding a tagged fusion protein in which methionine, a VKKX tag (any of SEQ ID nOs: 7 to 52), and a fusion protein (SEQ ID NO: 5) were linked in this order was designed. In this base sequence, a base sequence (any of SEQ ID nOs: 53 to 98) encoding a VKKX tag is arranged immediately after the start codon ATG, and a base sequence encoding a fusion protein immediately after the base sequence (SEQ ID NO: 6) encoding the VKKX tag is arranged.
As a control example for evaluating the effect of the VKKX tag, a base sequence in which a base sequence (SEQ ID NO: 6) encoding a fusion protein arranged immediately after the start codon ATG was designed.
In order to translate chloroacetyl lysine which is an unnatural amino acid, a tRNA in which the anticodon was CUA and paired with the UAG codon of mRNA was prepared. This tRNA was aminoacylated with an N-chloroacetyl lysine hosphoro 2′ deoxyribocytidylylriboadenosine (pdCpA) ester. This aminoacyl tRNA is referred to as an Aminoacyl tRNA (1).
as §1
as §2, with “Table 2-1 and Table 2-2 show relative values of the biosynthesis amounts of respective fusion proteins in a case where the amount of the fusion protein of the control example was set to the reference value 1.” left out

As to “SEQ ID NO: 44: VKKX tag, amino acid sequence VKKTKTTKT (VKKX Tag)”, the “Biosynthesis amount of fusion protein” value in assay [1] worked out at 7.18; in assay [2], 7.83. On to “SEQ ID NO: 9: VKKX tag, amino acid sequence VKKT (VKKX Tag)”, for which, in assay [2], the “Biosynthesis amount of fusion protein” value is 5.66.

For the substance “SEQ ID NO: 30: VKKX tag, amino acid sequence VKKTKTKK (VKKX Tag)”, the “Biosynthesis amount of fusion protein” value in assay [1] stood at 24.42; in assay [2] it was 9.01. For “SEQ ID NO: 16: VKKX tag, amino acid sequence VKKL (VKKX Tag)”, in assay [2], the “Biosynthesis amount of fusion protein” value is 2.71. Take “SEQ ID NO: 35: VKKX tag, amino acid sequence VKKTKTDD (VKKX Tag)”: the “Biosynthesis amount of fusion protein” value stood at 8.49 in assay [1] and 5.75 in assay [2].

In the case of “SEQ ID NO: 22: VKKX tag, amino acid sequence VKKN (VKKX Tag)”, the “Biosynthesis amount of fusion protein” value in assay [2] was 3.17.

Consider “SEQ ID NO: 49: VKKX tag, amino acid sequence VKKTKTKTTK (VKKX Tag)”, for which the entries for the “Biosynthesis amount of fusion protein” value in assay [1] and in assay [2] were 8.75 and 7.44, respectively. The like results for “SEQ ID NO: 32: VKKX tag, amino acid sequence VKKTKTKD (VKKX Tag)” were, in that order, 20.56 and 8.04.

As for “SEQ ID NO: 20: VKKX tag, amino acid sequence VKKD (VKKX Tag)”, the “Biosynthesis amount of fusion protein” value in assay [2] was found to be 3.05.

As for “SEQ ID NO: 33: VKKX tag, amino acid sequence VKKTKTTK (VKKX Tag)”, the “Biosynthesis amount of fusion protein” value in assay [1] is recorded as 8.17; in assay [2], 6.54. Consider “SEQ ID NO: 13: VKKX tag, amino acid sequence VKKM (VKKX Tag)”, for which, in assay [2], the “Biosynthesis amount of fusion protein” value worked out at 1.94.

As for “SEQ ID NO: 52: VKKX tag, amino acid sequence VKKTKTKTDTT (VKKX Tag)”, the “Biosynthesis amount of fusion protein” value in assay [1] turned out to be 9.15; in assay [2], 4.33. Further, in assay [2] (Example 1, versus control without tag, 1 hour), the “increase of biosynthesis amount of the fusion protein” value worked out at 4.3 times. Regarding “SEQ ID NO: 42: VKKX tag, amino acid sequence VKKTKTKDD (VKKX Tag)”, the “Biosynthesis amount of fusion protein” value in assay [1] came out at 14.95; in assay [2], 5.35.

As for “SEQ ID NO: 50: VKKX tag, amino acid sequence VKKTKTKDKK (VKKX Tag)”, the entries for the “Biosynthesis amount of fusion protein” value in assay [1] and in assay [2] were 35.42 and 7.78, respectively. Consider “SEQ ID NO: 37: VKKX tag, amino acid sequence VKKTKTKKD (VKKX Tag)”, for which the “Biosynthesis amount of fusion protein” value amounted to 19.84 in assay [1] and 11.45 in assay [2]. Consider “SEQ ID NO: 29: VKKX tag, amino acid sequence VKKTKTD (VKKX Tag)”, for which the “Biosynthesis amount of fusion protein” value in assay [1] came out at 15.90; in assay [2], 6.09. For “SEQ ID NO: 48: VKKX tag, amino acid sequence VKKTKTKTKK (VKKX Tag)” the same measures were 36.08 and 10.47.

Turning to “SEQ ID NO: 38: VKKX tag, amino acid sequence VKKTKTKTK (VKKX Tag)”, the results for the “Biosynthesis amount of fusion protein” value in assay [1] and in assay [2] were 16.95 and 8.42, respectively. Consider “SEQ ID NO: 17: VKKX tag, amino acid sequence VKKV (VKKX Tag)”, for which the “Biosynthesis amount of fusion protein” value in assay [2] amounted to 2.90. With “SEQ ID NO: 7: VKKX tag, amino acid sequence VKKI (VKKX Tag)”, in assay [2], the “Biosynthesis amount of fusion protein” value came out at 4.40. The same measure, in the same setting: the same measure for “SEQ ID NO: 23: VKKX tag, amino acid sequence VKKY (VKKX Tag)”: 3.30; for “SEQ ID NO: 15: VKKX tag, amino acid sequence VKKG (VKKX Tag)”: 2.39; for “SEQ ID NO: 12: VKKX tag, amino acid sequence VKKH (VKKX Tag)”: 5.82. On to “SEQ ID NO: 25: VKKX tag, amino acid sequence VKKW (VKKX Tag)”, for which, in assay [2], the “Biosynthesis amount of fusion protein” value was determined as 3.52.

For “SEQ ID NO: 10: VKKX tag, amino acid sequence VKKR (VKKX Tag)”, in assay [2], the “Biosynthesis amount of fusion protein” value stood at 5.75. In the case of “SEQ ID NO: 19: VKKX tag, amino acid sequence VKKA (VKKX Tag)”, the “Biosynthesis amount of fusion protein” value in assay [2] amounted to 3.01.

For the substance “SEQ ID NO: 21: VKKX tag, amino acid sequence VKKC (VKKX Tag)”, the “Biosynthesis amount of fusion protein” value in assay [2] was 3.14.

Regarding “SEQ ID NO: 14: VKKX tag, amino acid sequence VKKP (VKKX Tag)”, the “Biosynthesis amount of fusion protein” value in assay [2] was determined as 2.23. The same measure, in the same setting: for “SEQ ID NO: 11: VKKX tag, amino acid sequence VKKS (VKKX Tag)” the value was 6.05.

As to “SEQ ID NO: 24: VKKX tag, amino acid sequence VKKQ (VKKX Tag)”, the “Biosynthesis amount of fusion protein” value in assay [2] was 3.52. Consider “SEQ ID NO: 26: VKKX tag, amino acid sequence VKKF (VKKX Tag)”, for which the “Biosynthesis amount of fusion protein” value in assay [2] is 3.69. Take “SEQ ID NO: 8: VKKX tag, amino acid sequence VKKK (VKKX Tag)”: the “Biosynthesis amount of fusion protein” value in assay [2] is reported as 6.15.

For the substance “SEQ ID NO: 18: VKKX tag, amino acid sequence VKKE (VKKX Tag)”, in assay [2], the “Biosynthesis amount of fusion protein” value was determined as 2.94.
